The text below walks through data of ChEMBL document CHEMBL5365403, “Synthesis of proposed structure of ledebourin A” (Bioorg Med Chem Lett, 2023).

For series [1], the system named is HepG2. As to the kind of experiment: Hepatoprotective activity against GA-induced human HepG2 cells assessed as reduction in Bax protein expression at 5 to 10 uM. It counts as functional, cell-based. Conditions: dose 5-10 µM.
For series [2], the system named is HepG2. The series is described as follows: Cytotoxicity against human HepG2 cells assessed as reduction cell viability at 10 uM after 24 hrs by MTT assay. It counts as toxicity, cell-based. Conditions: hepg2, 24 h. For orientation: Tetrazolium dyes change colour on reduction, which living cells bring about.
Series [3] has as its system HepG2. The series is described as follows: Hepatoprotective activity against GA-induced human HepG2 cells assessed as cell viability at 10 uM pre-incubated for 2 hrs followed by GA addition and measured after 22 hrs by MTT assay (Rvb=37% ). It counts as functional. The note with it: time 24 hrs, read-out: Activity.

The source made the active and inactive calls. The calls are words filed in the database; no cut-off is given here.

On to `COc1ccc(C[C@H]2COc3cc4c(c(O)c3C2=O)C=CC(C)(C)O4)cc1`, for which, in the series with HepG2 [1], the outcome was Active. For the same molecule, the Activity entry in the series on HepG2 [2] is listed as “Non-Toxic”. In addition, the viability at 10 µM with HepG2 [3] is 47%.
Turning to `COc1ccc(C[C@H]2COc3c4c(cc(O)c3C2=O)OC(C)(C)C=C4)cc1`, the outcome in the series with HepG2 [1] was Active. Further, in the series with HepG2 [2], the Activity entry is recorded as “Non-Toxic”. Moreover, the viability at 10 µM in the series with HepG2 [3] stood at 51%.
